# “And” between values parts separate entries of the source, which are not always exact repeats. Equal values may be shown once. Where a name gives a salt, the structure may show the parent alone. Read-outs that look alike come from different tables or passages of the source.
# Key:
# [1] = system: HMC-1-8; assay: Antiproliferation assay (Assay 7), HMC-1-8; type: cell-based; settings: CellTiter-Glo, several values per example, read-out: Antiproli HMC-1-8 [M] IC50
# Procedure, shortened: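 Luminescent ATP-based viability (CellTiter-Glo) measured after 72 hours of compound treatment at 37° C, alongside a time-zero plate read on the day of plating.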
# [2] = system: SUDHL10; assay: Induction of cytotoxicity (Assay 6), SUDHL10; settings: read-out: Cytotox SUDHL10 [M] (median) IC50, CellTiter-Glo, 5 hours, SUDHL10
# [3] = biological target: BCL-2 (Homo sapiens (Human), UniProt P10415); assay: Protein-protein interaction assay BCL-2/Bad BH3 peptide (BCL-2 assay, TR-FRET); type: binding; settings: His-BCL-2 / Bad BH3 peptide, median
# Procedure, shortened: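 His-BCL-2 (1-211, E. coli) at 1 nM preincubated 10 min at 22 °C with compound (11 concentrations, 0.1 nM-20 μM, duplicates), then 1 nM biotinylated Bad BH3 peptide added. After 1 h at 22 °C plus overnight at 4 °C, TR-FRET 665/620 ratio normalised to DMSO and no-BCL-2 controls, IC50 from 4-parameter fit.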
# BCL-2, sequence (P10415 other isoform, or with tags, fused parts or gaps): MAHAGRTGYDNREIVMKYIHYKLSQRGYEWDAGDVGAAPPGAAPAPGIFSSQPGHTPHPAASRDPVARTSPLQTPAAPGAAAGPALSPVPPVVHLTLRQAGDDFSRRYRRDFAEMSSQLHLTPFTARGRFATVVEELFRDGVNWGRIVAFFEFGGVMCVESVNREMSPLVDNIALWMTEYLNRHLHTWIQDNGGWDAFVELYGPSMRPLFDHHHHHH
SMILES,IC50 ([1]; 72 hours),IC50 [2] [M],IC50 [3] [nM],IC50 ([1]; 72 h) [M],"IC50 ([2]; Homo sapiens, SU-DHL10, 5 h) [M]"
"CCc1c2c(nn1C)C(CCC1CCOCC1)N(C)S(=O)(=O)CCCn1c(C(=O)O)c(CCCOc3cccc4cc(F)ccc34)c3ccc(Cl)c-2c31 (single isomer, unassigned; enantiomer 2) [Example 62, (−)-4-chloro-3-ethyl-7-{3-[(6-fluoronaphthalen-1-yl)oxy]propyl}-2,14-dimethyl-15-[2-(oxan-4-yl)ethyl]-13,13-dioxo-10,11,12,13,14,15-hexahydro-2H-13lambda^6-pyrazolo[3′,4′:4,5][1,2,8]thiadiazacycloundecino[6,7,8-hi]indole-8-carboxylic acid (Enantiomer 2)]",2.1e-05 M,9.7e-06,14000,–,–
"COc1ccc(CN2Cc3nn(C)c(C)c3-c3c(Cl)ccc4c(CCCOc5cccc6cc(F)ccc56)c(C(=O)O)n(c34)CCCS2(=O)=O)c(OC)c1 (racemic) [Example 49, (rac)-4-chloro-14-(2,4-dimethoxybenzyl)-7-{3-[(6-fluoro-1-naphthyl)oxy]propyl}-2,3-dimethyl-11,12,14,15-tetrahydro-2H,10H-pyrazolo[3′,4′:4,5][1,2,8]thiadiazacycloundecino[6,7,8-hi]indole-8-carboxylic acid 13,13-dioxide]",5.8e-06 M,–,20000,7.8e-06,2.2e-07
"Cc1c2c(nn1C)C(CCN1CCOCC1)N(C)S(=O)(=O)CCCn1c(C(=O)O)c(CCCOc3cccc4ccccc34)c3cccc-2c31 (single isomer, unassigned; enantiomer 2) [Example 46, 2,3,14-trimethyl-15-[2-(morpholin-4-yl)ethyl]-7-{3-[(naphthalen-1-yl)oxy]propyl}-13,13-dioxo-10,11,12,13,14,15-hexahydro-2H-13lambda^6-pyrazolo[3′,4′:4,5][1,2,8]thiadiazacycloundecino[6,7,8-hi]indole-8-carboxylic acid N-ethylethanamine Salt (Enantiomer 2)]",9.4e-06 M and 1.2e-05 M,6.1e-07,–,–,–
"Cc1c2c(nn1C)CNS(=O)(=O)CCCn1c(C(=O)O)c(CCCOc3cccc4cc(F)ccc34)c3ccc(Cl)c-2c31 (racemic) [Example 50, (rac)-4-chloro-7-{3-[(6-fluoro-1-naphthyl)oxy]propyl}-2,3-dimethyl-11,12,14,15-tetrahydro-2H,10H-pyrazolo[3′,4′:4,5][1,2,8]thiadiazacycloundecino[6,7,8-hi]indole-8-carboxylic acid 13,13-dioxide]",–,–,> 20000,3e-05,3.8e-06
"CCc1c2c(nn1C)CN(CC)S(=O)(=O)CCCn1c(C(=O)O)c(CCCOc3cccc4cc(F)ccc34)c3ccc(Cl)c-2c31 (single isomer, unassigned; enantiomer 1) [Example 57, (+)-4-chloro-3,14-diethyl-7-{3-[(6-fluoronaphthalen-1-yl)oxy]propyl}-2-methyl-13,13-dioxo-10,11,12,13,14,15-hexahydro-2H-13lambda^6-pyrazolo[3′,4′:4,5][1,2,8]thiadiazacycloundecino[6,7,8-hi]indole-8-carboxylic acid N-ethylethanamine Salt (Enantiomer 1)]",9.1e-07 M and 1.3e-06 M,1.4e-07,12000,–,–
"CCc1c2c(nn1C)CN(C)S(=O)(=O)CCCn1c(C(=O)O)c(CCCOc3cccc4cc(F)ccc34)c3ccc(Cl)c-2c31 (single isomer, unassigned; enantiomer 2) [Example 37, (−)-4-chloro-3-ethyl-7-{3-[(6-fluoronaphthalen-1-yl)oxy]propyl}-2,14-dimethyl-13,13-dioxo-10,11,12,13,14,15-hexahydro-2H-13lambda^6-pyrazolo[3′,4′:4,5][1,2,8]thiadiazacycloundecino-[6,7,8-hi]indole-8-carboxylic acid (Enantiomer 2)]",1.9e-05 M,9e-06,20000,–,–
"Cc1c2c(nn1C)C(CCN1CCOCC1)N(C)S(=O)(=O)CCCn1c(C(=O)O)c(CCCOc3cccc4cc(F)ccc34)c3ccc(Cl)c-2c31 (racemic) [Example 65, (rac)-4-chloro-7-{3-[(6-fluoronaphthalen-1-yl)oxy]propyl}-2,3,14-trimethyl-15-(rac)-[2-(morpholin-4-yl)ethyl]-13,13-dioxo-10,11,12,13,14,15-hexahydro-2H-13lambda^6-pyrazolo[3′,4′:4,5][1,2,8]thiadiazacycloundecino[6,7,8-hi]indole-8-carboxylic acid (Mixture of Stereoisomers)]",–,1e-07,> 20000,1.5e-06,–
"CCc1c2c(nn1C)CN(CC)S(=O)(=O)CCCn1c(C(=O)O)c(CCCOc3cccc4cc(F)ccc34)c3ccc(Cl)c-2c31 (racemic) [Example 56, (rac)-4-chloro-3,14-diethyl-7-{3-[(6-fluoro-1-naphthyl)oxy]propyl}-2-methyl-11,12,14,15-tetrahydro-2H,10H-pyrazolo[3′,4′:4,5][1,2,8]thiadiazacycloundecino[6,7,8-hi]indole-8-carboxylic acid 13,13-dioxide]",2.3e-06 M and 2.7e-06 M,–,–,1.5e-06,2.5e-07
"CCc1c2c(nn1C)CN(C1CC1)S(=O)(=O)CCCn1c(C(=O)O)c(CCCOc3cccc4cc(F)ccc34)c3ccc(Cl)c-2c31 (single isomer, unassigned; enantiomer 1) [Example 54, (−)-4-chloro-14-cyclopropyl-3-ethyl-7-{3-[(6-fluoronaphthalen-1-yl)oxy]propyl}-2-methyl-13,13-dioxo-10,11,12,13,14,15-hexahydro-2H-13lambda^6-pyrazolo[3′,4′:4,5][1,2,8]thiadiazacycloundecino[6,7,8-hi]indole-8-carboxylic acid N-ethylethanamine Salt (Enantiomer 1)]",2.2e-06 M and 2.5e-06 M,6.5e-07,–,–,–
"CCc1c2c(nn1C)C(CCC1CCOCC1)N(C)S(=O)(=O)CCCn1c(C(=O)O)c(CCCOc3cccc4cc(F)ccc34)c3ccc(Cl)c-2c31 (racemic) [Example 60, (rac)-4-chloro-3-ethyl-7-{3-[(6-fluoro-1-naphthyl)oxy]propyl}-2,14-dimethyl-15-[2-(tetrahydro-2H-pyran-4-yl)ethyl]-11,12,14,15-tetrahydro-2H,10H-pyrazolo[3′,4′:4,5][1,2,8]thiadiazacycloundecino[6,7,8-hi]indole-8-carboxylic acid 13,13-dioxide (Racemate 1)]",1.9e-07 M,3.9e-08,–,–,–
"CCNCC.CCc1c2c(nn1C)C(CCN1CCOCC1)N(C)S(=O)(=O)CCCn1c(C(=O)O)c(CCCOc3cccc4cc(F)ccc34)c3ccc(Cl)c-2c31 (single isomer, unassigned; enantiomer 2) [Example 76, 4-chloro-3-ethyl-7-{3-[(6-fluoronaphthalen-1-yl)oxy]propyl}-2,14-dimethyl-15-[2-(morpholin-4-yl)ethyl]-13,13-dioxo-10,11,12,13,14,15-hexahydro-2H-13lambda^6-pyrazolo[3′,4′:4,5][1,2,8]thiadiazacycloundecino[6,7,8-hi]indole-8-carboxylic acid-N-ethylethanamine Salt (Enantiomer 2)]",3.5e-07 M and 4.1e-07 M,8.2e-09,–,–,–
"CCc1c2c(nn1C)CN(C1CC1)S(=O)(=O)CCCn1c(C(=O)O)c(CCCOc3cccc4cc(F)ccc34)c3ccc(Cl)c-2c31 (racemic) [Example 53, (rac)-4-chloro-14-cyclopropyl-3-ethyl-7-{3-[(6-fluoro-1-naphthyl)oxy]propyl}-2-methyl-11,12,14,15-tetrahydro-2H,10H-pyrazolo[3′,4′:4,5][1,2,8]thiadiazacycloundecino[6,7,8-hi]indole-8-carboxylic acid 13,13-dioxide]",5e-06 M and 6.4e-06 M and 7.7e-06 M,9e-07,–,–,–

# — US11401278B2, “Macrocyclic indole derivatives” (The Broad Institute, Inc., priority 2017, dated 2022)
